Measurements reported in patent publication US20250228235A1, “METHODS TO IMPROVE ORRGAN VIABILITY” (Mallinckrodt Pharmaceuticals Ireland Limited, priority 2017, published 2025).

What was measured:
4-week-old swine = test: Blinded, randomized, controlled pediatric swine asphyxial model of cardiac arrest (survival, cerebral blood flow, hemodynamics); assay type: in vivo
From the text: (§1) Neurologic injury following pediatric cardiac arrest (CA) remains common. Inhaled nitric oxide (iNO) may mitigate cerebral mitochondrial dysfunction, a critical convergence point for secondary brain injury, triggered by CA. It was hypothesized that following asphyxia and cardiac arrest, animals treated with 20 ppm iNO during CPR and four hours post-return of spontaneous circulation (ROSC) will have improved cerebral blood flow (CBF) and improved mitochondrial function as defined by increased respiratory control ratio (RCR) and decreased mitochondrial reactive oxygen species (mtROS) compared with placebo.
(§2) 4-week-old swine received 7 minutes of asphyxia, then ventricular fibrillation. Guideline CPR was performed with compression depth (CD)≥⅓ of the chest diameter and standard epinephrine continued for 10 mins or until ROSC, with protocolized post-ROSC care. In a blinded fashion, subjects were randomized (iNO 20 ppm initiated 1 minute into CPR period, n=10, or placebo, n=10). […] Baseline and continuous CBF measurements were taken using invasive clinical and non-invasive optical instrumentation. Cortical and hippocampal tissue were analyzed by high-resolution respirometry to assess mitochondrial function. T-tests and ANOVA were used where applicable. Longitudinal hemodynamic variables were compared using generalized estimating equations to control for within-subject correlation.

[1] = test system: cerebral mitochondrial function (cortical and hippocampal tissue); test: High-resolution respirometry of cortical and hippocampal tissue to assess mitochondrial function after cardiac arrest; assay type: in vivo, swine; details: iNO 20 ppm vs placebo
From the text: as §1, §2

Compound: [N]=O [iNO, nitric oxide]
- invasive or noninvasive CBF (cerebral blood flow) (4-week-old swine; during CPR and post-ROSC, iNO 20 ppm vs placebo): no significant differences
- survived (4-week-old swine; iNO 20 ppm initiated 1 minute into CPR, n=10, placebo 7/10, p=0.21): 10/10
- mtROS generation, cortex ([1]; cortex, p<0.001): significantly lower
- Cortex RCR (respiratory control ratio) ([1]; cortex, p=0.04): significantly higher
- hippocampal RCR (respiratory control ratio) ([1]; hippocampus, p=0.007): significantly higher
- mtROS generation, hippocampus ([1]; hippocampus, p=0.03): significantly lower
